Source: paper PMC12714101, “CD160-Derived Peptide as a Bidirectional Inhibitor Toward Immune Checkpoints BTLA/HVEM and HVEM/LIGHT” (Journal of Medicinal Chemistry, 2025)
Where a SMILES comes first, the peptide text is derived from it.

Columns and labels:
BTLA/HVEM complex = target: T1, BTLA/HVEM complex (Homo sapiens, UniProt Q92956); test: ELISA inhibition of BTLA/HVEM complex formation; format: biochemical; conditions: peptide 16.67 μM, immobilized HVEM-His, BTLA-Fc 5 μg/mL, PBS-T, 37 °C, mean of three independent experiments
T1 construct: purchased ACROBiosystems HVM-H52E9 (HVEM-His); BTA-H5255 (BTLA-Fc)
T1 sequence (Q92956 39-202 limits assumed): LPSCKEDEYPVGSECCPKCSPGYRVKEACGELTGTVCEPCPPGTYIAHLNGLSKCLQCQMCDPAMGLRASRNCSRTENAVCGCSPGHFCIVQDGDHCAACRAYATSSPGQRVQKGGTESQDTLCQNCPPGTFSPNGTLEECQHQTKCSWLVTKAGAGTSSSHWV
Experimental: In the subsequent stage of the study, the potential of the obtained compounds to inhibit the interaction between BTLA and HVEM proteins was evaluated using ELISA, following the methodology described in our previous studies. , HVEM was immobilized on the plate and incubated with peptides at three different concentrations, followed by the addition of Fc-tagged BTLA. Detection was carried out using horseradish peroxidase (HRP) conjugated with anti-human IgG and 3,3′,5,5′-tetramethylbenzidine (TMB) as a substrate. Signal intensity was directly proportional to the amount of BTLA bound to HVEM and inversely proportional to the inhibitory activity of the tested peptides. As a control, BTLA and HVEM were incubated in the absence of peptides.
Recombinant human HVEM protein with a His tag was purchased from ACROBiosystems, Newark, DE, USA (no. HVM-H52E9). Recombinant human protein BTLA-Fc and LIGHT-Fc were also purchased from ACROBiosystems, Newark, DE, USA (no. BTA-H5255 and no. LIT-H5269).
ELISA was performed using transparent 96-well NUNC Maxisorp plates (Thermo Fisher Scientific, Waltham, MA, USA). In the first step, HVEM-His, dissolved in PBS at a concentration of 5 μg/mL (100 μL/well), was immobilized on the plate by overnight incubation at 4 °C. Wells were then blocked with 5% bovine serum albumin (BSA) in PBS containing 0.05% Tween 20 (PBS-T) (200 μL/well). Next, peptides dissolved in PBS-T at concentrations of 150, 50, and 16.67 μM were added to the wells (100 μL/well). Following this, BTLA-Fc in PBS-T at a concentration of 5 μg/mL (100 μL/well) was applied. In the next step, goat anti-human IgG antibody conjugated with the HRP (Bio-Rad Laboratories, Hercules, CA, USA) in PBS-T at a ratio of 1:30,000 (v/v) was added (100 μL/well). Colorimetric detection was performed by adding 100 μL of TMB substrate (Thermo Fisher Scientific, Waltham, MA, USA) to each well and incubating the plate in the dark. At each stage, plates were incubated at 37 °C with continuous shaking for 1 h (except TMB, which was incubated for 15 min). After each incubation, wells were washed five times with PBS-T. Absorbance was measured using an Infinite M200 Pro Reader (Tecan Group Ltd., Männedorf, Switzerland) at wavelengths of 650 nm (measurement wavelength) and 492 nm (reference wavelength). Inhibition assays for the HVEM/LIGHT complex were conducted using the same approach, except that LIGHT was used instead of BTLA. The BTLA/HVEM and HVEM/LIGHT complexes without peptides served as controls. Inhibition percentages were calculated based on the assumption that PBS-T has no effect on the formation of BTLA/HVEM or HVEM/LIGHT complexes. Each ELISA was conducted in at least three independent replicates. The data were analyzed using GraphPad Prism 8 software (San Diego, CA, USA).

[1] = NMR in PBS-buffered aqueous solution (aggregation); format: physicochemical; conditions: 298 K, 2 mM sample
Experimental: First, circular dichroism (CD) spectra were recorded for this peptide in H2O and phosphate-buffered saline (PBS). In water, the peptide adopts a disordered structure, characterized by a minimum at 197 nm. In contrast, in PBS, it undergoes conformational ordering, forming a β-strand structure with a minimum at 214 nm and maximum at 197 nm. […] To further investigate the peptide’s structure, nuclear magnetic resonance (NMR) spectra were acquired in both buffer-free aqueous solution and PBS-buffered aqueous solution. […] Narrow amide proton chemical shift dispersion (ΔδHN = 0.7 ppm), absence of medium- and long-range nuclear Overhauser effects (NOEs), and ^3JNα coupling constants indicate a lack of well-defined secondary structure (Figures S9 and S10). […] Molecular dynamics simulations with NOE-derived distance restraints generated an ensemble of structures showing high conformational diversity. […]
NMR spectra were acquired at 298 K on Bruker spectrometers (^1H 700.55 MHz, 16.4 T and 500.13 MHz, 11.7 T). […] The ^1H–^13C HSQC spectrum was recorded at the natural abundance of the ^13C isotope. […] Spectra were processed and analyzed, respectively, with Topspin 4.4.1 (Bruker, Ettlingen, Germany) and NMRFAM-Sparky software packages. […]

SMILES: CC[C@@H]1NC(=O)[C@@H](NC(=O)[C@H](CCC(N)=O)NC(=O)[C@H](Cc2ccc(O)cc2)NC(C)=O)CSSC[C@@H](C(=O)N[C@@H](Cc2c[nH]cn2)C(=O)N[C@@H](Cc2ccccc2)C(=O)N[C@@H](Cc2ccccc2)C(N)=O)NC(=O)[C@H](CCC(N)=O)NC(=O)[C@H](CC(C)C)NC(=O)[C@H](CCCNC(=N)N)NC(=O)[C@H]([C@@H](C)CC)NC(=O)CNC(=O)[C@H](CO)NC(=O)[C@H](CCCCN)NC(=O)[C@H](CCC(N)=O)NC(=O)[C@H](CO)NC(=O)[C@H](CCCNC(=N)N)NC(=O)[C@H](C)NC1=O [A5, CD160(110–128) ^(C113X,G125C)] (HELM PEPTIDE1{[ac].Y.Q.C.[Abu].A.R.S.Q.K.S.G.I.R.L.Q.C.H.F.F.[am]}$PEPTIDE1,PEPTIDE1,4:R3-17:R3$$$V2.0)
- inhibition at 16.67 µM (BTLA/HVEM complex): 6.24%
- Aggregation in PBS (NMR signal broadening) [1]: peptide aggregation
